Data from US7655756B2 (Johnson & Johnson Pharmaceutical Research & Development, LLC, priority 2005, dated 2010).

Key:
ERRγ-SRC2 complex = target: T1, ERRγ-SRC2 complex (Homo sapiens, UniProt P62508); assay: TR-FRET co-activator recruitment assay; format: biochemical; details: for Displacement of co-activator peptide from ERRγ (antagonism), in words: 6 nM ERRγ LBD, 6 nM GST-SRC-2 peptide
T1 construct: made in house; host or cells: E. coli BL21(DE3) (ERRγ LBD)
T1 sequence (P62508 229-458): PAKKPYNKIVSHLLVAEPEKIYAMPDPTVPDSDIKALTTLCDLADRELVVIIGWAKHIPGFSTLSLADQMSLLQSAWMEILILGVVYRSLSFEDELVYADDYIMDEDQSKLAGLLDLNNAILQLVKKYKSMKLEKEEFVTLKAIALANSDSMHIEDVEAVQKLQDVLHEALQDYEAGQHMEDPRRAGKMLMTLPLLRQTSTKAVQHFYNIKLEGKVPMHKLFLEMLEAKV
Method: For FRET measurements, the reaction was buffered in 25 mM Tris pH 8, 2.5 mM Hepes, 20 mM KCl, 1 mM DTT, and 0.05 mg/mL delipidated BSA.
Time-resolved Fluorescence resonance energy transfer (FRET) experiments were performed to examine the functional response of ERRγ ligands.
For FRET measurements, the reaction was buffered in 25 mM Tris pH 8, 2.5 mM Hepes, 20 mM KCl, 1 mM DTT, and 0.05 mg/mL BSA (-lipids). […] Reactions were allowed to reach equilibrium at 25° C. for 4-18 hours before collecting data on the Analyst from LJL Biosystems (Molecular Devices Sunnyvale, Calif.). […] Dose response curves were fitted using a hyperbolic equation and the data reported is the average of three independent experiments.

ERRα = target: T2, ERRα (Homo sapiens, UniProt P11474); assay: ThermoFluor thermal shift assay, ERRα; format: binding; details: 100 μM test compound; 0.1 mg/mL protein, 25 mM HEPES pH 8.0, 25 μM ANS, 2% DMSO; Tm free protein 54.4 °C; read-out: ΔTm, thermal stabilization of ERRα
T2 sequence (P11474 193-421 limits assumed): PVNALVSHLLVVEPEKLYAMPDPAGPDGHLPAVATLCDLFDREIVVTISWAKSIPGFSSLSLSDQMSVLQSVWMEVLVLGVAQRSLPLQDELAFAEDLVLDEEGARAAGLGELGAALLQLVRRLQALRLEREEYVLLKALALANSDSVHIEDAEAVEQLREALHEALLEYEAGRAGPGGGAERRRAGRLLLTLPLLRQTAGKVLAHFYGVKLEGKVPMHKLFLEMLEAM

ERRγ = target: T3, ERRγ (Homo sapiens, UniProt P62508); assay: Isothermal titration calorimetry; format: binding; details: isothermal titration calorimetry
T3 construct: 6His; made in house; host or cells: E. coli BL21(DE3)
T3 sequence (P62508 229-458): T1 sequence (P62508 229-458)
Method: The heat of interaction of the ligands with ERRγ molecules was measured by using the Omega titration calorimeter from Microcal Inc. In a typical titration, 1.4 mL of a 20 μM protein solution is titrated with a ligand solution of ˜0.4 mM concentration using a 100 μL syringe by ˜20 injections of 5-6 μL each. This syringe is also used to mix the reactants completely in the sample cell by rotating it at 400 rpm. For each injection, the area under the resulting peak is proportional to the heat of interaction, Q. Once this heat is corrected for the titrant dilution and normalized by the titrant solution concentration it becomes equal to the binding enthalpy, ΔHb, under nonsaturating conditions. The precision of the heat of each injection is about 0.5 μcal. One method of determining ΔHb is to average several intermediate peaks from the different sites. In addition to the binding enthalpies, one can obtain binding affinities, and overall stoichiometries of the complexes. The experimental calorimetric binding isotherm is the dependence of the total heat, Qr, (or dQrldX T) on the total concentration of ligand added, Xr. The above three parameters for each type of site are determined iteratively using the Marquardt algorithms as described previously.

ERα = target: T4, ERα (Homo sapiens, UniProt P03372); assay: ThermoFluor thermal shift assay, ERα; format: binding
T4 sequence (P03372 1-595): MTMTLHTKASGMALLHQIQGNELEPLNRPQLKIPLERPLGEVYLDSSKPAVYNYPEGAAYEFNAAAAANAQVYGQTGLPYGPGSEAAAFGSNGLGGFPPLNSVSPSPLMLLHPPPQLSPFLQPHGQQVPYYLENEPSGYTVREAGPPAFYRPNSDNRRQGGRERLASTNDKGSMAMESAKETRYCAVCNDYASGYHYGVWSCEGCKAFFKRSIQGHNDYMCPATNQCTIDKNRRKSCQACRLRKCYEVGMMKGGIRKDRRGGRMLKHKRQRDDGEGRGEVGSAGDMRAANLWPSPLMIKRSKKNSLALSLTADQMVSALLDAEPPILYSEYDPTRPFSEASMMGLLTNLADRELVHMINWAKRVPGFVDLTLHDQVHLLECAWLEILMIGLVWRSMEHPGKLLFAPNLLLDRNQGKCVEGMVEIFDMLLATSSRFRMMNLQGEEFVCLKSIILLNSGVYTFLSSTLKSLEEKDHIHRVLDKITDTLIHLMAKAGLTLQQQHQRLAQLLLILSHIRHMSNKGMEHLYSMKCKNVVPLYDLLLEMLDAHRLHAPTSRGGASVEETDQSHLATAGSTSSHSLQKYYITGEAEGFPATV

ERβ = ERβ (Homo sapiens, UniProt Q92731); assay: ThermoFluor thermal shift assay, ERβ; format: binding
Sequence of ERβ (Q92731 whole entry, species assumed, the tested form may be a part): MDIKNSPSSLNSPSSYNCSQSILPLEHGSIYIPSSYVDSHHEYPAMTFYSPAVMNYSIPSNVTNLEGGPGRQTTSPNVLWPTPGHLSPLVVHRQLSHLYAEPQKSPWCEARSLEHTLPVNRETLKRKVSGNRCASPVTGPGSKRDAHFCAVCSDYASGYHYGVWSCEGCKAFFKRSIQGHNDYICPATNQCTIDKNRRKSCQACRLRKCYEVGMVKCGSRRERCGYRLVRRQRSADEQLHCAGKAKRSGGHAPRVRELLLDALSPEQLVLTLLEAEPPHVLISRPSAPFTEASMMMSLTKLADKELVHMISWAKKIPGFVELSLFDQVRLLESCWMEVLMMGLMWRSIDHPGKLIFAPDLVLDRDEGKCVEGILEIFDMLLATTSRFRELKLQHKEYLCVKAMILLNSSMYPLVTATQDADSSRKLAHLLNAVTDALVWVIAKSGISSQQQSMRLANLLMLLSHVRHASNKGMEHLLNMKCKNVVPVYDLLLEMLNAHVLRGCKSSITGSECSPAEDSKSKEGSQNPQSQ

pBIND-Gal4-ERRγ = assay: Cell based reporter (trans-activation) assay in HEK293E cells; details: luciferase reporter, Gal4-ERRγ and pACT-SRC2, 24 hours of compound treatment
Method: A cell based reporter assay was used to determine the functional response of the ERRγ hits. Transfections were performed in HEK293E cells that were maintained in DMEM supplemented in glutamine and 10% FBS. Co-transfections of 4 μg of a luciferase reporter plasmid and 4 μg of each pBIND-Gal4-ERRγ and pACT-SRC2 plasmids per T-75 flask were done using Lipofectamine as per manufacturers instructions. Twenty-four hours post-transfection, the cells were seeded in 96-well plates at density of 50,000 cells per well in assay media (DMEM phenol free, 5% charcoal stripped FBS). […] After 24 hours of compound treatment, cells were lysed and treated with the Promega Dual-Glo system. Firefly Luciferase activity was read using a luminescence plate reader, and data were normalized against Renilla luciferase activity. Data were fitted using subroutines available from GraphPad.

ERRβ = target: T5, ERRβ (Homo sapiens, UniProt O95718); assay: ThermoFluor thermal shift assay, ERRβ; format: binding; details: 100 μM test compound; 0.1 mg/mL protein, 25 mM HEPES pH 8.0; Tm free protein 47.5 °C; read-out: ΔTm, thermal stabilization of ERRβ
T5 sequence (O95718 208-432 limits assumed): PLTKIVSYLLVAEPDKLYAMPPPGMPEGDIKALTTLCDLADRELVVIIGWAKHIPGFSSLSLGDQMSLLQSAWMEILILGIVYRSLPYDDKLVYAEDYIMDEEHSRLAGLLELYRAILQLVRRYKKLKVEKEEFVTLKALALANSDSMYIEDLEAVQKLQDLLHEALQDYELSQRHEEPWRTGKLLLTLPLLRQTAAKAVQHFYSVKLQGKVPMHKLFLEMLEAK

For `Cc1cc(O)ccc1Cl` [ClCH3Ph, 4-chloro, 3-methyl phenol], the “Enhancement in the affinity of the receptor for co-activator peptide fragments, in words” value (ERRγ-SRC2 complex) was “not able to demonstrate”, the “Displacement of co-activator peptide from ERRγ (antagonism), in words” value (ERRγ-SRC2 complex) was “neither ligand displaced co-activator peptide” and the “Displacement of co-activator peptide from ERRγ (antagonism), in words” value (ERRγ-SRC2 complex; listed as ClCh3PH) was “ineffective”. The ΔTm at 100 µM (ERRα) was 0.1 °C, the “Binding enthalpy ΔHb” value (ERRγ) was roughly -21 kcal/mol and the Kd (ERα; calculated at reference temperature 25 °C from ΔTm of Table II, ΔHu 112 kcal/mol, read-out: Estimated dissociation constant, ERα) was 37.3 µM. The ΔTm at 100 µM (ERα; pH 8, read-out: ΔTm, thermal stabilization of ERα) was 0.4 °C, the Kd (ERβ) was 3.05 µM and the ΔTm at 100 µM (ERβ; pH 8, read-out: ΔTm, thermal stabilization of ERβ) was 2.4 °C. For the same molecule, the “Change in transcriptional activity in trans-activation cellular assay, in words” value (pBIND-Gal4-ERRγ) was “not able to demonstrate” and the ΔTm at 100 µM (ERRβ) was 0.2 °C.
